Results on 24 compounds are retold here after patent US10669261B2, “Heteroarylhydroxypyrimidinones as agonists of the APJ receptor” (BRISTOL-MYERS SQUIBB COMPANY, priority 2015, dated 2020).

One assay addresses T1, human APJ receptor (Homo sapiens, UniProt P35414).
T1 construct: expressed in transfected cells
T1 sequence (P35414 1-380): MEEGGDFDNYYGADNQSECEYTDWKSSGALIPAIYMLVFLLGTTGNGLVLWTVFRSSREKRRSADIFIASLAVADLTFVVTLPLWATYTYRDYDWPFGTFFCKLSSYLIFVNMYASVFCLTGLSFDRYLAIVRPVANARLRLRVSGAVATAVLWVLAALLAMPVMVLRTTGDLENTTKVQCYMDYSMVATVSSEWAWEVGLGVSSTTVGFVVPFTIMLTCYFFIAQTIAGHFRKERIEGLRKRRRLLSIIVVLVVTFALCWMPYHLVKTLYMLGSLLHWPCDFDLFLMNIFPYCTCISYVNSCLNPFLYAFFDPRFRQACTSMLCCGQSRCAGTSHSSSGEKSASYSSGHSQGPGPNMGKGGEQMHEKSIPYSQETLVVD
Put plainly: Intracellular cAMP accumulation assay (APJ hcAMP, HTRF). It counts as cell-based. To be noted: HEK293 cells stably expressing human APJ receptor; inhibition of forskolin-mediated cAMP production; stated at end of example; read-out: Human APJ cAMP Potency Range. As for the experimental part: Intracellular cAMP Accumulation Assay
HEK293 cells stably expressing human APJ receptor were used to assess the activity of compounds. Cultured cells were detached and resuspended in the cAMP Homogeneous Time-Resolved Fluorescence (HTRF) assay buffer (Cisbio cat; #62AM4PEJ). The assay was performed in 384-well assay plates (Perkin-Elmer; cat #6008289) according to assay protocol provided by the manufacturer. Serial dilutions of a compound together with assay buffer containing […] IBMX and 2 μM forskolin were added to each well containing 5,000 cells and incubated for 30 minutes at room temperature. Subsequently, cAMP D2 reagent was added in the lysis buffer followed by the EuK antibody (Cisbio; cat #62AM4PEJ) and incubated for 60 min. The fluorescence emission ratio was measured using fluorometer. The intracellular cAMP concentrations (compound-stimulated inhibition of forskolin-mediated cAMP production) were calculated by extrapolation from a standard curve using known cAMP concentrations. The EC50 values were obtained by fitting the data to a sigmoidal concentration-response curve with variable slope. The maximal achievable inhibition of forskolin-induced cAMP levels (Ymax) for each compound was expressed as relative percentage of inhibition attained using pyroglutamated apelin-13 ((Pyr1)apelin-13) peptide, which was set to 100%.
The examples disclosed below were tested in the APJ in vitro assays described above and were found having human APJ cyclic AMP (hcAMP) activity. The EC50 value of each compound is presented at the end of the example description.
The biological activity of the exemplified compounds of this invention determined by the assay described above is shown at the end of each example.
On to `CCCCc1nc(=O)c(-c2nnc(Cc3noc4ccccc34)o2)c(O)n1-c1c(OC)cccc1OC` [Example 1, 5-(5-(benzo[d]isoxazol-3-ylmethyl)-1,3,4-oxadiazol-2-yl)-2-butyl-1-(2,6-dimethoxyphenyl)-6-hydroxypyrimidin-4(1H)-one], for which the EC50 fell in the range of 0.01 to 10 nM.
Same read-out and setting: with `CCCCc1nc(=O)c(-c2nnc(Cc3noc4ccccc34)o2)c(O)n1-c1c(OCC)cccc1OCC` [Example 23, 5-(5-(Benzo[d]isoxazol-3-ylmethyl)-1,3,4-oxadiazol-2-yl)-2-butyl-1-(2,6-diethoxyphenyl)-6-hydroxypyrimidin-4(1H)-one] the figure was 0.01 to 10 nM.

Still in this assay, the particulars now being: Table 1; HEK293 cells stably expressing human APJ receptor; read-out: hAPJ cAMP EC50 Potency range.
Regarding `CCCCc1nc(=O)c(-c2nnc(Cc3ccc(Cl)cc3)o2)c(O)n1-c1c(OC)cccc1OC` [Example 2, 2-butyl-5-{5-[(4-chlorophenyl)methyl]-1,3,4-oxadiazol-2-yl}-1-(2,6-dimethoxyphenyl)-6-hydroxy-1,4-dihydropyrimidin-4-one], the EC50 was 0.01 to 10 nM.
Same read-out and setting: the value for `C=CCCc1nc(=O)c(-c2nnc(Cc3noc4ccccc34)o2)c(O)n1-c1c(OC)cccc1OC` [Example 3, 5-[5-(1,2-benzoxazol-3-ylmethyl)-1,3,4-oxadiazol-2-yl]-2-(but-3-en-1-yl)-1-(2,6-dimethoxyphenyl)-6-hydroxy-1,4-dihydropyrimidin-4-one] was 0.01 to 10 nM; that for `CCCCc1nc(=O)c(-c2nnc(Cc3noc4ccccc34)o2)c(O)n1-c1c(CC)cccc1CC` [Example 4, 5-[5-(1,2-benzoxazol-3-ylmethyl)-1,3,4-oxadiazol-2-yl]-2-butyl-1-(2,6-diethylphenyl)-6-hydroxy-1,4-dihydropyrimidin-4-one] was 0.01 to 10 nM; that for `CCCCc1nc(=O)c(-c2nnc(Cc3csc(C)n3)o2)c(O)n1-c1c(OC)cccc1OC` [Example 5, 2-butyl-1-(2,6-dimethoxyphenyl)-6-hydroxy-5-{5-[(2-methyl-1,3-thiazol-4-yl)methyl]-1,3,4-oxadiazol-2-yl}-1,4-dihydropyrimidin-4-one] was 0.01 to 10 nM.
Still for that read-out and setting: the value for `CCCCc1nc(=O)c(-c2nnc(Cn3ccccc3=O)o2)c(O)n1-c1c(OC)cccc1OC` [Example 6, 2-butyl-1-(2,6-dimethoxyphenyl)-6-hydroxy-5-{5-[(2-oxo-1,2-dihydropyridin-1-yl)methyl]-1,3,4-oxadiazol-2-yl}-1,4-dihydropyrimidin-4-one] was 0.01 to 10 nM.
Still for that read-out and setting: the value for `COc1cccc(OC)c1-n1c(CCC(C)C)nc(=O)c(-c2nnc(CN3CCCC3=O)o2)c1O` [Example 7, 1-(2,6-dimethoxyphenyl)-6-hydroxy-2-(3-methylbutyl)-5-{5-[(2-oxopyrrolidin-1-yl)methyl]-1,3,4-oxadiazol-2-yl}-1,4-dihydropyrimidin-4-one] was 0.01 to 10 nM; that for `CCCCc1nc(=O)c(-c2nnc(CN3CCCC3=O)o2)c(O)n1-c1c(OC)cccc1OC` [Example 8, 2-butyl-1-(2,6-dimethoxyphenyl)-6-hydroxy-5-{5-[(2-oxopyrrolidin-1-yl)methyl]-1,3,4-oxadiazol-2-yl}-1,4-dihydropyrimidin-4-one] was 0.01 to 10 nM; that for `CCCCc1nc(=O)c(-c2nnc(Cc3nc(-c4ccccn4)no3)o2)c(O)n1-c1c(OC)cccc1OC` [Example 9, 2-butyl-1-(2,6-dimethoxyphenyl)-6-hydroxy-5-(5-{[3-(pyridin-2-yl)-1,2,4-oxadiazol-5-yl]methyl}-1,3,4-oxadiazol-2-yl)-1,4-dihydropyrimidin-4-one] was 0.01 to 10 nM.
`COc1cccc(OC)c1-n1c(CCC(C)C)nc(=O)c(-c2nnc(Cn3ccccc3=O)o2)c1O` [Example 10, 1-(2,6-dimethoxyphenyl)-6-hydroxy-2-(3-methylbutyl)-5-{5-[(2-oxo-1,2-dihydropyridin-1-yl)methyl]-1,3,4-oxadiazol-2-yl}-1,4-dihydropyrimidin-4-one]: the EC50 fell in the range of 0.01 to 10 nM.
Turning to `C=CCCc1nc(=O)c(-c2nnc(Cc3nc(-c4ccccn4)no3)o2)c(O)n1-c1c(OC)cccc1OC` [Example 11, 2-(but-3-en-1-yl)-1-(2,6-dimethoxyphenyl)-6-hydroxy-5-(5-{[3-(pyridin-2-yl)-1,2,4-oxadiazol-5-yl]methyl}-1,3,4-oxadiazol-2-yl)-1,4-dihydropyrimidin-4-one], the EC50 was in the range of 0.01 to 10 nM.
Same read-out and setting: the value for `COc1cccc(OC)c1-n1c(CCCC(F)(F)F)nc(=O)c(-c2nnc(Cc3noc4ccccc34)o2)c1O` [Example 12, 5-[5-(1,2-benzoxazol-3-ylmethyl)-1,3,4-oxadiazol-2-yl]-1-(2,6-dimethoxyphenyl)-6-hydroxy-2-(4,4,4-trifluorobutyl)-1,4-dihydropyrimidin-4-one] was 0.01 to 10 nM.
On the same count and under the same terms, with `CCCCc1nc(=O)c(-c2nnc(Cc3noc4ccccc34)o2)c(O)n1-c1c(C)cccc1OC` [Example 13, 5-[5-(1,2-benzoxazol-3-ylmethyl)-1,3,4-oxadiazol-2-yl]-2-butyl-6-hydroxy-1-(2-methoxy-6-methylphenyl)-1,4-dihydropyrimidin-4-one] the figure was 0.01 to 10 nM.
`C=CCCc1nc(=O)c(-c2nnc(Cc3ccc(Cl)cc3)o2)c(O)n1-c1c(OC)cccc1OC` [Example 14, 2-(but-3-en-1-yl)-5-{5-[(4-chlorophenyl)methyl]-1,3,4-oxadiazol-2-yl}-1-(2,6-dimethoxyphenyl)-6-hydroxy-1,4-dihydropyrimidin-4-one]: the EC50 was 0.01 to 10 nM.
On the same count and under the same terms, the value for `CCCCc1nc(=O)c(-c2nnc(Cc3noc4ccccc34)o2)c(O)n1-c1c(Br)cccc1Br` [Example 15, 5-[5-(1,2-benzoxazol-3-ylmethyl)-1,3,4-oxadiazol-2-yl]-2-butyl-1-(2,6-dibromophenyl)-6-hydroxy-1,4-dihydropyrimidin-4-one] was 0.01 to 10 nM.
The same measure, in the same setting: with `COc1cccc(OC)c1-n1c(CCC(C)C)nc(=O)c(-c2nnc(CN3CCOCC3=O)o2)c1O` [Example 16, 4-({5-[1-(2,6-dimethoxyphenyl)-6-hydroxy-2-(3-methylbutyl)-4-oxo-1,4-dihydropyrimidin-5-yl]-1,3,4-oxadiazol-2-yl}methyl)morpholin-3-one] the figure was 0.01 to 10 nM; with `C=CCCc1nc(=O)c(-c2nnc(Cc3noc4ccccc34)o2)c(O)n1-c1c(C)cccc1OC` [Example 17, 5-[5-(1,2-benzoxazol-3-ylmethyl)-1,3,4-oxadiazol-2-yl]-2-(but-3-en-1-yl)-6-hydroxy-1-(2-methoxy-6-methylphenyl)-1,4-dihydropyrimidin-4-one], 0.01 to 10 nM; with `CCCCc1nc(=O)c(-c2nnc(Cc3noc4ccccc34)o2)c(O)n1-c1c(OC)ncnc1OC` [Example 18, 5-[5-(1,2-benzoxazol-3-ylmethyl)-1,3,4-oxadiazol-2-yl]-2-butyl-1-(4,6-dimethoxypyrimidin-5-yl)-6-hydroxy-1,4-dihydropyrimidin-4-one], 0.01 to 10 nM.
On the same count and under the same terms, with `CCCCc1nc(=O)c(-c2nnc(Cc3noc4ccccc34)o2)c(O)n1-c1c(Cl)cccc1Cl` [Example 19, 5-[5-(1,2-benzoxazol-3-ylmethyl)-1,3,4-oxadiazol-2-yl]-2-butyl-1-(2,6-dichlorophenyl)-6-hydroxy-1,4-dihydropyrimidin-4-one] the figure was 0.01 to 10 nM; with `COc1cccc(OC)c1-n1c(CC2CC2)nc(=O)c(-c2nnc(Cc3noc4ccccc34)o2)c1O` [Example 20, 5-[5-(1,2-benzoxazol-3-ylmethyl)-1,3,4-oxadiazol-2-yl]-2-(cyclopropylmethyl)-1-(2,6-dimethoxyphenyl)-6-hydroxy-1,4-dihydropyrimidin-4-one], 0.01 to 10 nM; with `COc1cccc(OC)c1-n1c(CC2CC2)nc(=O)c(-c2nnc(Cc3ccc(Cl)cc3)o2)c1O` [Example 21, 5-{5-[(4-chlorophenyl)methyl]-1,3,4-oxadiazol-2-yl}-2-(cyclopropylmethyl)-1-(2,6-dimethoxyphenyl)-6-hydroxy-1,4-dihydropyrimidin-4-one], 0.01 to 10 nM.
On to `COc1cccc(OC)c1-n1c(CC2CC2)nc(=O)c(-c2nnc(Cc3nc(-c4ccccn4)no3)o2)c1O` [Example 22, 2-(cyclopropylmethyl)-1-(2,6-dimethoxyphenyl)-6-hydroxy-5-(5-{[3-(pyridin-2-yl)-1,2,4-oxadiazol-5-yl]methyl}-1,3,4-oxadiazol-2-yl)-1,4-dihydropyrimidin-4-one], for which the EC50 was 0.01 to 10 nM.

Still in this assay, the particulars now being: Table 2; HEK293 cells stably expressing human APJ receptor; read-out: hAPJ cAMP EC50 Potency range.
In the case of `CCCCc1nc(O)c(-c2nnc(Cc3csc(C)n3)o2)c(=O)n1C(C)c1cccnc1` (racemic) [Example 124, 2-butyl-6-hydroxy-5-{5-[(2-methyl-1,3-thiazol-4-yl)methyl]-1,3,4-oxadiazol-2-yl}-3-[1-(pyridin-3-yl)ethyl]-3,4-dihydropyrimidin-4-one], the EC50 was 100 to 300 nM.
